According to US6080733A, “Thioureido-cyclodextrins, utilized in particular to solubilize anti-tumor, and antiparasitic agents and their preparation processes” (Centre National de la Recherche Scientifique, priority 1996, dated 2000):
Several values for one entry are separate records, joined by “and”; a condition that tells them apart may be missing. Equal entries are not always repeated.

How the values were obtained:
[1] = solubility in water of the thioureido-cyclodextrins; assay type: physicochemical
[2] = cited from earlier work

CO[C@H]1O[C@H](CNC(=S)NC[C@H]2O[C@@H]3O[C@H]4[C@H](O)[C@@H](O)[C@@H](O[C@H]5[C@H](O)[C@@H](O)[C@@H](O[C@H]6[C@H](O)[C@@H](O)[C@@H](O[C@H]7[C@H](O)[C@@H](O)[C@@H](O[C@H]8[C@H](O)[C@@H](O)[C@@H](O[C@H]9[C@H](O)[C@@H](O)[C@@H](O[C@H]2[C@H](O)[C@H]3O)O[C@@H]9CO)O[C@@H]8CO)O[C@@H]7CO)O[C@@H]6CO)O[C@@H]5CO)O[C@@H]4CO)[C@@H](O)[C@H](O)[C@H]1O [compound n°2]
solubility [1]: 710000 µg/mL and 518000 µM

CNC(=S)NC[C@H]1O[C@@H]2O[C@H]3[C@H](O)[C@@H](O)[C@@H](O[C@H]4[C@H](O)[C@@H](O)[C@@H](O[C@H]5[C@H](O)[C@@H](O)[C@@H](O[C@H]6[C@H](O)[C@@H](O)[C@@H](O[C@H]7[C@H](O)[C@@H](O)[C@@H](O[C@H]8[C@H](O)[C@@H](O)[C@@H](O[C@H]1[C@H](O)[C@H]2O)O[C@@H]8CO)O[C@@H]7CO)O[C@@H]6CO)O[C@@H]5CO)O[C@@H]4CO)O[C@@H]3CO [compound n°1, 6^I -desoxy-6^I -(N'-methylthioureido) cyclomaltoheptaose]
solubility [1]: 775000 µg/mL and 640000 µM

CO[C@H]1O[C@H](CNC(=S)NC[C@H]2O[C@@H]3O[C@H]4[C@H](O)[C@@H](O)[C@@H](O[C@H]5[C@H](O)[C@@H](O)[C@@H](O[C@H]6[C@H](O)[C@@H](O)[C@@H](O[C@H]7[C@H](O)[C@@H](O)[C@@H](O[C@H]8[C@H](O)[C@@H](O)[C@@H](O[C@H]9[C@H](O)[C@@H](O)[C@@H](O[C@H]2[C@H](O)[C@H]3O)O[C@@H]9CO)O[C@@H]8CO)O[C@@H]7CO)O[C@@H]6CO)O[C@@H]5CO)O[C@@H]4CO)[C@@H](OC(C)=O)[C@H](OC(C)=O)[C@H]1OC(C)=O [compound n°3]
solubility in water [1]: 558 g/l and 373 mM

CC(=O)O[C@@]12CO[C@@H]1C[C@H](O)[C@@]1(C)C(=O)[C@H](O)C3=C(C)[C@@H](OC(=O)[C@H](O)[C@@H](NC(=O)OC(C)(C)C)c4ccccc4)C[C@@](O)([C@@H](OC(=O)c4ccccc4)[C@H]21)C3(C)C [Taxotere]
solubility in water of Taxotere, raised by encapsulation ([2]; encapsulated in 6^I -S-α-maltosyl-6^I -thiocyclo-maltaheptaose (WO-A-95/19994)): 6.5 g/L | solubility in water of Taxotere ([2]; without cyclodextrin): 4 µg/mL
